Assay results as given in patent US20140220640A1, “METHOD FOR MANUFACTURING DETOXIFICATED LIGNOCELLULOSIC BIOMASS HYDROLYSATE WITH DECREASED OR ELIMINATED TOXICITY AND METHOD FOR MANUFACTURING ORGANIC OR AND BIOFUEL USING THE SAME” (KOREA INSTITUTE OF SCIENCE AND TECHNOLOGY, priority 2011, published 2014).

Legend:
[1] = system: Clostridium tyrobutyricum (ATCC 25755); experiment: Production of butyric acid by Clostridium tyrobutyricum (gas chromatography); assay type: cell-based; conditions: 1 g/L phenolic compound plus 1 g/L Tween 80; FIG. 4
Protocol: (§1) In order to investigate the effect of phenolic compounds on the growth of microorganisms and production of butanol or butyric acid by the microorganisms, microorganisms were cultured in a medium containing phenolic compounds and the cell weight of the microorganisms and the concentration of produced butanol and butyric acid was measured.
A butyric acid fermentation medium included 20 g of glucose, 5 g of yeast extract, 0.2 g of magnesium sulfate, 0.01 g of manganese sulfate, 0.01 g of iron sulfate, 0.01 g of sodium chloride, 0.5 g of monopotassium phosphate (KH2PO4), 0.5 g of dipotassium phosphate (K2HPO4) and 2 g of ammonium acetate per liter. And, a butanol fermentation medium included 20 g of glucose, 5 g of yeast extract, 0.2 g of magnesium sulfate, 0.01 g of manganese sulfate, 0.01 g of iron sulfate, 0.01 g of sodium chloride, 0.5 g of monopotassium phosphate (KH2PO4), 0.5 g of dipotassium phosphate (K2HPO4) and 2 g of ammonium acetate per liter. […]
The concentration of butyric acid and butanol was analyzed using a gas chromatography system (Agilent Technologies 6890N Network GC system) equipped with a flame ionization detector. […]
The growth of Clostridium tyrobutyricum (ATCC 25755) and production of butyric acid thereby in the medium containing the phenolic compounds, 1 g/L each, and 1 g/L of Tween 80 were measured. […]

[2] = system: Clostridium tyrobutyricum (ATCC 25755); experiment: Growth of Clostridium tyrobutyricum in batch culture (absorbance at 600 nm); assay type: cell-based; conditions: 1 g/L phenolic compound in medium, vs control with no phenolic compound; FIG. 3
Protocol: as §1
A butyric acid fermentation medium included 20 g of glucose, 5 g of yeast extract, 0.2 g of magnesium sulfate, 0.01 g of manganese sulfate, 0.01 g of iron sulfate, 0.01 g of sodium chloride, 0.5 g of monopotassium phosphate (KH2PO4), 0.5 g of dipotassium phosphate (K2HPO4) and 2 g of ammonium acetate per liter. And, a butanol fermentation medium included 20 g of glucose, 5 g of yeast extract, 0.2 g of magnesium sulfate, 0.01 g of manganese sulfate, 0.01 g of iron sulfate, 0.01 g of sodium chloride, 0.5 g of monopotassium phosphate (KH2PO4), 0.5 g of dipotassium phosphate (K2HPO4) and 2 g of ammonium acetate per liter. Each medium was flushed with argon gas and sterilized at 121° C. for 15 minutes before measurement. Initial pH was adjusted to 6.8 with 1 N potassium hydroxide (KOH).
p-Coumaric acid, ferulic acid, syringaldehyde and vanillic acid, 1 g/L each, were added to the medium as phenolic compounds. A medium with no phenolic compound added was used as control.
Butyric acid fermentation was conducted using Clostridium tyrobutyricum (American Type Culture Collection, ATCC 25755) after culturing for two passages. Butanol fermentation was conducted using Clostridium acetobutylicum (ATCC 824) and Clostridium beijerinckii (National Collection of Industrial, Marine and Food Bacteria, NCIMB 8052) after culturing for two passages.
Butyric acid and butanol fermentation was carried out by adding the culture fluid to a batch fermenter. Batch culture was performed by adding 20 mL of the medium to a 60-mL serum bottle, adding the culture fluid with an amount of 5% based on the medium and then incubating in a shaking incubator at 37° C. and 150 rpm.
The growth of the microorganisms was evaluated by measuring absorbance at 600 nm using a spectrophotometer (UVmini-1240, Shimadzu).
As the surfactant, Tween 80 (BioXtra, Sigma, viscous liquid) was used. The phenolic compound and Tween 80 were added at an amount of 1 g/L to the medium of Example 1. A medium with no phenolic compound or Tween 80 added was used as control.
The growth of Clostridium tyrobutyricum (ATCC 25755) and production of butyric acid thereby in the medium containing the phenolic compounds, 1 g/L each, and 1 g/L of Tween 80 were measured.
Other experimental conditions were the same as in Example 1.
1 g/L of lignin (alkali, Sigma Aldrich 471003) was added to the medium of Example 1 instead of the phenolic compounds. […]

| SMILES | detoxifying effect of added surfactant on butyric acid production [1] | inhibiting the growth of the microorganism [2] [%] |
| --- | --- | --- |
| COc1cc(/C=C/C(=O)O)ccc1O [ferulic acid] | higher detoxifying effect | 74 |
| O=C(O)/C=C/c1ccc(O)cc1 [p-coumaric acid, p-Coumaric acid] | higher detoxifying effect | 99 |
| COc1cc(C=O)cc(OC)c1O [syringaldehyde] | – | 30 |
| COc1cc(C(=O)O)ccc1O [vanillic acid] | – | 48 |
